Laboratory results: paper PMC6108835, “Target-Based Discovery of an Inhibitor of the Regulatory Phosphatase PPP1R15B” (Cell, 2018)

Key:
R15A^325–636 = biological target: T1, R15A^325–636 (Homo sapiens, UniProt O75807); assay: eIF2α pull down with MBP-tagged R15A; format: biochemical; settings: Raphin1 200 μM, P-eIF2α 1 μM
T1 construct: made in house; host or cells: E. coli BL21-Gold (DE3) pLysS
Procedure: Recombinant eIF2α was produced as described in [Ito et al. (2004)] and pull down experiments were carried out as previously described ([Carrara et al., 2017]). Amylose beads (New England BioLabs) were pre-equilibrated with interaction buffer (50 mM Tris pH 7.4, 200 mM NaCl, 0.05% Tween20). 20 μL amylose beads were incubated with purified MBP-tagged R15s (200 nM), P-eIF2α (1 μM) as appropriate, plus 200 μM Raphin1, or DMSO vehicle in a total volume of 200 μL. Input samples (5%) was removed at this step, and added to 4% SDS-Laemmli sample buffer. Beads were incubated for 10 min at 4°C with 20 rpm gentle rotation. The beads were washed 5 × 1 mL with interaction buffer, transferred to a fresh tube and finally resuspended with 50 μL 4% SDS-Laemmli sample buffer. Eluded beads were boiled and then run on 4%–12% NuPAGE Bis-Tris gels (ThermoFisher Scientific). Anti-MBP HRP (New England BioLabs (#E8038); 1:5,000) (to probe for R15s) and anti-eIF2α (AbCam (#ab26197); 1:1,000) antibodies were used for immunoblotting analyses of samples.

brains of wild-type mice = assay: Monitoring translation rates in vivo, brains of wild-type mice; design: species or system mouse; settings: 40 mg/kg
Procedure: 3 months old treatment- and test-naive C57BL/6J males were treated as indicated. 30 min before the end of treatment mice were injected intraperitoneally with 0.75 mCi/kg radioactive label – 75% ^35S-methionine + 25% ^35S-cystine (Hartmann Analytic). At the end of treatment mice were culled by cervical dislocation, brains were extracted, fresh-frozen in liquid nitrogen and kept at −80°C until use. Tissue was homogenized and lysed in Laemmli Buffer (1 mL for 0.5 mg tissue). Lysates were boiled at 95°C for 5 min, sonicated and resolved on Bolt SDS-PAGE 4%–12% Bis-Tris gels (ThermoFisher Scientific). Gels were then stained with InstantBlue (Expedeon) and after the gels had been imaged they were transferred to a 20% ethanol, 7% acetic acid, 4% glycerol solution for 10 min. This was to prevent the gels from cracking while drying. The gels were transferred to filter paper and dried using a gel dryer. The gels were then exposed to a Storage Phosphor Screen (GE Healthcare) and analyzed by phosphorimaging using a Typhoon Imager Scanner (GE Healthcare).

T1 sequence (O75807 325-636, stated change not applied): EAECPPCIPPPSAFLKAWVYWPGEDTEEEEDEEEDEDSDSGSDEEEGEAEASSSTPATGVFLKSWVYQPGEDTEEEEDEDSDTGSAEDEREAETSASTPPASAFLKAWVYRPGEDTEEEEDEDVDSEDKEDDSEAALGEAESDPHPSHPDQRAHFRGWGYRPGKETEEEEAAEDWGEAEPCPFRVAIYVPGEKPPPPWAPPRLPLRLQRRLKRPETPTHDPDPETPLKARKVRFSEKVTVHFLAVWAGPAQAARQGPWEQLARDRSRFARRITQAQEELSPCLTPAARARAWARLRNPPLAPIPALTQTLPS

[H]/N=C(\N)NN=Cc1cccc(Cl)c1Cl [Raphin1, (E)-2-(2,3-dichlorobenzylidene)hydrazine-1-carboximidamide]
Recruitment of eIF2α to R15A (R15A^325–636): no such effect
Time of translation recovery after administration (brains of wild-type mice; wild-type brains): ~6 h
Protein synthesis in the brains (in words) (brains of wild-type mice; wild-type mice): transiently reduced
